Calls of active or inactive are those of the source.
Columns and labels:
Adenosine kinase = Adenosine kinase (Homo sapiens, UniProt P55263)
ADP/ATP translocase 3 = target: T1, ADP/ATP translocase 3 (Homo sapiens, UniProt P12236)
T1 sequence (P12236 whole entry): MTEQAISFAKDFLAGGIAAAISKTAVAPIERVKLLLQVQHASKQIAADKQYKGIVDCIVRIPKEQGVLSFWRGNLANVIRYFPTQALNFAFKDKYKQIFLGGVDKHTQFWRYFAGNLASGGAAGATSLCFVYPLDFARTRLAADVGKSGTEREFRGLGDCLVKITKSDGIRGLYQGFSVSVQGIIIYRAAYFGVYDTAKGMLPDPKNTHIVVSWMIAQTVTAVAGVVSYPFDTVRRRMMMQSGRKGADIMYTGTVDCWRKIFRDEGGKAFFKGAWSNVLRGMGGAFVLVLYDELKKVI

[1] = target: Atypical kinase COQ8A, mitochondrial (Homo sapiens, UniProt Q8NI60)
Sequence of Atypical kinase COQ8A, mitochondrial (Q8NI60 whole entry): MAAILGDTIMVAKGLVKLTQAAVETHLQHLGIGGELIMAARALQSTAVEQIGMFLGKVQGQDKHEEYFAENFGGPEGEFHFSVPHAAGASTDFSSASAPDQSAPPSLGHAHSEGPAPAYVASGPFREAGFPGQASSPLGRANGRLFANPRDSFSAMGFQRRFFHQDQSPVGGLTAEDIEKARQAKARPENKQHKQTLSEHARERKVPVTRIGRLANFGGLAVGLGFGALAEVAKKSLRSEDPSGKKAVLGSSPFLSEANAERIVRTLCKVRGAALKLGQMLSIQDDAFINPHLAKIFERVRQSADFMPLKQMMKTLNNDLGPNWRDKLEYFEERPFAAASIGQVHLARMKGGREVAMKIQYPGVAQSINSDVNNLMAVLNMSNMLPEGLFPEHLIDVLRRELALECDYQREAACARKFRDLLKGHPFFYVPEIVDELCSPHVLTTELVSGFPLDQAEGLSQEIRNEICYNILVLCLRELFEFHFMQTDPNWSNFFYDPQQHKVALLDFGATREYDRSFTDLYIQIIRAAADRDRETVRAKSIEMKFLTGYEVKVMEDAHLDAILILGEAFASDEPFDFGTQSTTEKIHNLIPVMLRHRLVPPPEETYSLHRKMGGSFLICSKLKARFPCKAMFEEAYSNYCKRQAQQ

[2] = target: Serine/threonine-protein kinase 16 (Homo sapiens, UniProt O75716)
Ephrin type-A receptor 4 = Ephrin type-A receptor 4 (Homo sapiens, UniProt P54764)
[3] = target: Dual specificity mitogen-activated protein kinase kinase 1 (Homo sapiens, UniProt Q02750)
[4] = target: Serine/threonine-protein kinase pim-1 (Homo sapiens, UniProt P11309)
Sequence of Serine/threonine-protein kinase pim-1 (P11309 whole entry): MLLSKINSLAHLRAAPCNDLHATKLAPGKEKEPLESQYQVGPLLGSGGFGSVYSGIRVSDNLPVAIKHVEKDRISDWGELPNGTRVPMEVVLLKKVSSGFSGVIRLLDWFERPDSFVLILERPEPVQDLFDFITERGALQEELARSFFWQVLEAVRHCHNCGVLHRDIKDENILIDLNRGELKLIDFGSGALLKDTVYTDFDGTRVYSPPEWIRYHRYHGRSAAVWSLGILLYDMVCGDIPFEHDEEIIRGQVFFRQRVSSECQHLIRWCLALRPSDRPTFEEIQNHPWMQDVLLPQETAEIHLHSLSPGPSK

[5] = target: Myosin light chain kinase, smooth muscle (Homo sapiens, UniProt Q15746)
Sequence of Myosin light chain kinase, smooth muscle (Q15746 whole entry): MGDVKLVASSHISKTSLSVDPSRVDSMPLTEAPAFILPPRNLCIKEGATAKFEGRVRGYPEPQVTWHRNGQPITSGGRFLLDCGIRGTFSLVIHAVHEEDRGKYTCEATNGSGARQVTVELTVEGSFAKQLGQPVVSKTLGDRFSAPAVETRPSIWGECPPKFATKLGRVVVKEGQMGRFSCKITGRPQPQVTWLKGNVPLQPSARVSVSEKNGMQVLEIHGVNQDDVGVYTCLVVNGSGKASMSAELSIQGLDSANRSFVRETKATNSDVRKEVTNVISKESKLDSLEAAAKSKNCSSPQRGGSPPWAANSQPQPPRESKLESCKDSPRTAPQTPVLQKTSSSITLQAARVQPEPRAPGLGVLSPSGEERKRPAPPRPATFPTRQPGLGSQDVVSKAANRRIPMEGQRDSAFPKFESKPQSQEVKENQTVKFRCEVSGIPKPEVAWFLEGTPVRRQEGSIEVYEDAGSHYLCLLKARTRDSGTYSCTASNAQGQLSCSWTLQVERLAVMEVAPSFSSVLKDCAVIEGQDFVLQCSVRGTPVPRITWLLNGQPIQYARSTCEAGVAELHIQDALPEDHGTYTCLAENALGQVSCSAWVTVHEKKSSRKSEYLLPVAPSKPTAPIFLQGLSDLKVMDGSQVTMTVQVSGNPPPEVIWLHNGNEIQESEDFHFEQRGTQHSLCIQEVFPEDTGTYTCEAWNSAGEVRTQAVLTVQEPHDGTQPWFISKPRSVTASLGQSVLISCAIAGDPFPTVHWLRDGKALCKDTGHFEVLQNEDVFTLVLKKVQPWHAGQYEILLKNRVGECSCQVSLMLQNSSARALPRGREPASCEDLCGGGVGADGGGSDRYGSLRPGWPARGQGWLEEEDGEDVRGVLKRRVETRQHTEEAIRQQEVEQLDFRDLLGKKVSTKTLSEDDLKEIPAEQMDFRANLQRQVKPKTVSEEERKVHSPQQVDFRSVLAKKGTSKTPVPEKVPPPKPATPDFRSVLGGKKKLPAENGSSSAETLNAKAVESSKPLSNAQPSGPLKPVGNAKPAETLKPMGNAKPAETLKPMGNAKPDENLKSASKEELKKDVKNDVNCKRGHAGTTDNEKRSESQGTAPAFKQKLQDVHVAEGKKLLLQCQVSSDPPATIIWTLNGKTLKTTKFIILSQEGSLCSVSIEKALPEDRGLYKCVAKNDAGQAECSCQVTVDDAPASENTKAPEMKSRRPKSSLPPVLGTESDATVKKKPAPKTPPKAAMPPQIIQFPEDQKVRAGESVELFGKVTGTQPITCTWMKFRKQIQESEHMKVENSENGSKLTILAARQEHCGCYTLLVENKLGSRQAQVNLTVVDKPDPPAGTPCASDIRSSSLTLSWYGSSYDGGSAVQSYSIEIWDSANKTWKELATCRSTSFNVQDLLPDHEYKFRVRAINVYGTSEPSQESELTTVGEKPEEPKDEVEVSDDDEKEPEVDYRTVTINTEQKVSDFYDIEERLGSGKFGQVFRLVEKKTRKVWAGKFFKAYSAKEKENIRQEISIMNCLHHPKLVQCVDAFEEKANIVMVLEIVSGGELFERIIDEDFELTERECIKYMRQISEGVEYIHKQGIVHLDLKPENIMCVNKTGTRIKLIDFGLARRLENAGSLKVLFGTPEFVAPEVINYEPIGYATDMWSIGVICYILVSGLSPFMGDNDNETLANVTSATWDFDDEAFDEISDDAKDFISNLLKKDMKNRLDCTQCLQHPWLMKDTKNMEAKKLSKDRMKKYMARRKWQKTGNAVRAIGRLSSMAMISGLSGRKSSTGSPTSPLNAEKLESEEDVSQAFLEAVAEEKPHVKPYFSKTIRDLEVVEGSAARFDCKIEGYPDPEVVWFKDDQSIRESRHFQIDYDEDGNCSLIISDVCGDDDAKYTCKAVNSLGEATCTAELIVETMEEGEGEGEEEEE

[6] = target: Bone morphogenetic protein receptor type-1A (Homo sapiens, UniProt P36894)
Sequence of Bone morphogenetic protein receptor type-1A (P36894 whole entry, canonical isoform): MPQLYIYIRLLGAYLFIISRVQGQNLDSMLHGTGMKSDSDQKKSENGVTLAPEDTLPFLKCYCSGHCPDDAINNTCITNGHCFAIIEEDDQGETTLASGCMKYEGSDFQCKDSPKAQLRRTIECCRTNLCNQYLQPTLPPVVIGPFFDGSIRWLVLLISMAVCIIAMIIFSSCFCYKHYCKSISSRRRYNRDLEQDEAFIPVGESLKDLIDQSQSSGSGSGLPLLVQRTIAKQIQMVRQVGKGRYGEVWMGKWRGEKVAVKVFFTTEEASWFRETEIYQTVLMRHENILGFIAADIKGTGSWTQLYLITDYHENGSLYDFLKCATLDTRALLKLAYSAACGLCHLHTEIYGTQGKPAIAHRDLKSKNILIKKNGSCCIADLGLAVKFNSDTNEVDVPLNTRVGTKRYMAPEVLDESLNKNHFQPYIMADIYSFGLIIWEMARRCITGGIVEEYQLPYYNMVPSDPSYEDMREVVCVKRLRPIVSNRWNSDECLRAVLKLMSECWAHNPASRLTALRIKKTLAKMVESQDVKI

[7] = target: Casein kinase I isoform gamma-1 (Homo sapiens, UniProt Q9HCP0)
Sequence of Casein kinase I isoform gamma-1 (Q9HCP0 whole entry, canonical isoform): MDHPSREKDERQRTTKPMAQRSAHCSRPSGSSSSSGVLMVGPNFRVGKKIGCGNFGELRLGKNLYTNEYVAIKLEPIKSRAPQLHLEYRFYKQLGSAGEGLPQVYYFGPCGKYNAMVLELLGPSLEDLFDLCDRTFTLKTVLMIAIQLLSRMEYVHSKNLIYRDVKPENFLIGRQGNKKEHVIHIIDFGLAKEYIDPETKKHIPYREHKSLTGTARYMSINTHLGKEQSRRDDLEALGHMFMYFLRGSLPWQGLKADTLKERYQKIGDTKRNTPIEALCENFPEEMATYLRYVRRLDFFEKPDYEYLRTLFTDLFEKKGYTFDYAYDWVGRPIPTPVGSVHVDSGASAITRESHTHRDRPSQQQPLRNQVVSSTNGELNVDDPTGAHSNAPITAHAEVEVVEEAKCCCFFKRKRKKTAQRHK

[8] = target: Ribosomal protein S6 kinase alpha-6 (Homo sapiens, UniProt Q9UK32)
Sequence of Ribosomal protein S6 kinase alpha-6 (Q9UK32 whole entry): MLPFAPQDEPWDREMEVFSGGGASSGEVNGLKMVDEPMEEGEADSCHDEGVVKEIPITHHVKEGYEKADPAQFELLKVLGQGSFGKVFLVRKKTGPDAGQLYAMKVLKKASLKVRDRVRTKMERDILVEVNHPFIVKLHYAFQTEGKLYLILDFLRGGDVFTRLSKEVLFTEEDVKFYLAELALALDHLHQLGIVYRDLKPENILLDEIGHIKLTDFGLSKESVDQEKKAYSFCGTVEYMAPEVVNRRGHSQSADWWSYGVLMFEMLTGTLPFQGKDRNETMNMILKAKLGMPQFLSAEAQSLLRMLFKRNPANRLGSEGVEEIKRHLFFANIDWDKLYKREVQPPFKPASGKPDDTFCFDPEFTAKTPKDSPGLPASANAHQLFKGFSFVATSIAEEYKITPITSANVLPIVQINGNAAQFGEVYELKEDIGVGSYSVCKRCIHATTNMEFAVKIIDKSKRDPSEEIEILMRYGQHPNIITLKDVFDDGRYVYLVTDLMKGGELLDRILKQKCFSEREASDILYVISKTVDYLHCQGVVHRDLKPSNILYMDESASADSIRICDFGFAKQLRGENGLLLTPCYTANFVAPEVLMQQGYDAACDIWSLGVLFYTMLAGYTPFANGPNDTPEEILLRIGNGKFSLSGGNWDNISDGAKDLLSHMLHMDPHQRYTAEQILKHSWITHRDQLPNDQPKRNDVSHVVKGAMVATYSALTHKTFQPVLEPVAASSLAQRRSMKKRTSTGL

[9] = target: T2, Inhibitor of nuclear factor kappa-B kinase subunit epsilon (Homo sapiens, UniProt Q14164)
T2 sequence (Q14164 whole entry): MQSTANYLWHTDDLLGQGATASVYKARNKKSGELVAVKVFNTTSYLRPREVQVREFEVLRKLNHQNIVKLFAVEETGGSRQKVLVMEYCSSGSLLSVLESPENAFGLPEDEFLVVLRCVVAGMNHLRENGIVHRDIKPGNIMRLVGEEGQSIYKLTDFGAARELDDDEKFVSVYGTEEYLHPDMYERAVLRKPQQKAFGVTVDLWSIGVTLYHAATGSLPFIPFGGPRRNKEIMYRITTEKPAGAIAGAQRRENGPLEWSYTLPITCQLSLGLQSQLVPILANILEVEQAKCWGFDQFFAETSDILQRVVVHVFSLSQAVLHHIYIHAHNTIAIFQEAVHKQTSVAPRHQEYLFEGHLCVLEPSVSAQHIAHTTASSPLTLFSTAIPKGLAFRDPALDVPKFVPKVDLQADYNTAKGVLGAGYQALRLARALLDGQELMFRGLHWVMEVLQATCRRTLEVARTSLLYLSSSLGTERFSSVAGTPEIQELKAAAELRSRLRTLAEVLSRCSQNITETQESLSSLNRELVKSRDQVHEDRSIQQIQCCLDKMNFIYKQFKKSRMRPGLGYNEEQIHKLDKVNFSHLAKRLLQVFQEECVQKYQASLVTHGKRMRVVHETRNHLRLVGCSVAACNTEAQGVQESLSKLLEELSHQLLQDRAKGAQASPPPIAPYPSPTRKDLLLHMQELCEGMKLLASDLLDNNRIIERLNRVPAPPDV
Further: in the data inactive means no Kd found up to 30 µM.

Sequence of Adenosine kinase (P55263 whole entry): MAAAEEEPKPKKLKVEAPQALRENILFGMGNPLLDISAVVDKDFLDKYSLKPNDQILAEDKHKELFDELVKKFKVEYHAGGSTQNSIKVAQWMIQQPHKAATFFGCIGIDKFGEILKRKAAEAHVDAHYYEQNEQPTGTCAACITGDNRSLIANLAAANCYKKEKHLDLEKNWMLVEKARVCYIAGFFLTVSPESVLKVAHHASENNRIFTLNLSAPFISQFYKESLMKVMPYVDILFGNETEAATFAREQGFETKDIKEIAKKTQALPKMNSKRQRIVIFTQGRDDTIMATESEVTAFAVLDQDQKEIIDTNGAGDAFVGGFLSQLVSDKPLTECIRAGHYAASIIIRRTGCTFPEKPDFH

SMILES | Kd (Adenosine kinase) | Kd (ADP/ATP translocase 3) | Kd [1] | Kd [2] | Kd (Ephrin type-A receptor 4) | Kd [3] | Kd [4] | Kd [5] | Kd [6] | Kd [7] | Kd [8] | Kd [9]
Cn1cc(C2=C(c3cn(C4CCN(Cc5ccccn5)CC4)c4ccccc34)C(=O)NC2=O)c2ccccc21 [ENZASTAURIN] | > 30 µM (inactive) | > 30 µM (inactive) | – | – | – | – | – | – | – | – | – | –
CN(C[C@@H]1COCCO1)S(=O)(=O)Nc1ccc2ccc3ncc(-c4cnn(C)c4)cc3c(=O)c2c1 [MK-2461] | > 30 µM (inactive) | > 30 µM (inactive) | > 30 µM (inactive) | > 30 µM (inactive) | > 30 µM (inactive) | > 30 µM (inactive) | > 30 µM (inactive) | > 30 µM (inactive) | > 30 µM (inactive) | > 30 µM (inactive) | > 30 µM (inactive) | > 30 µM (inactive)
Cc1cc(Nc2ncc(Cl)c(Nc3ccccc3S(=O)(=O)C(C)C)n2)c(OC(C)C)cc1C1CCNCC1 [CERITINIB] | > 30 µM (inactive) | > 30 µM (inactive) | > 30 µM (inactive) | > 30 µM (inactive) | > 30 µM (inactive) | > 30 µM (inactive) | > 30 µM (inactive) | > 30 µM (inactive) | > 30 µM (inactive) | > 30 µM (inactive) | > 30 µM (inactive) | > 30 µM (inactive)
CCn1cc(-c2ccnc3[nH]c(-c4cccc(CN(C)C)c4)cc23)c(-c2ccc(NC(=O)N(C)C)cc2)n1 [GSK-1070916] | > 30 µM (inactive) | > 30 µM (inactive) | > 30 µM (inactive) | > 30 µM (inactive) | > 30 µM (inactive) | > 30 µM (inactive) | > 30 µM (inactive) | > 30 µM (inactive) | > 30 µM (inactive) | > 30 µM (inactive) | > 30 µM (inactive) | –
CCNC(=O)C#Cc1ccc2c(c1)NC(=O)/C2=C(\Nc1ccc(CN(C)C)cc1)c1ccccc1 | > 30 µM (inactive) | > 30 µM (inactive) | > 30 µM (inactive) | > 30 µM (inactive) | > 30 µM (inactive) | – | > 30 µM (inactive) | > 30 µM (inactive) | > 30 µM (inactive) | > 30 µM (inactive) | > 30 µM (inactive) | 0.408 µM (active)
C#Cc1cccc(Nc2ncnc3cc(OC)c(OCCCCCCC(=O)NO)cc23)c1 [CUDC-101] | > 30 µM (inactive) | > 30 µM (inactive) | > 30 µM (inactive) | > 30 µM (inactive) | > 30 µM (inactive) | > 30 µM (inactive) | > 30 µM (inactive) | > 30 µM (inactive) | > 30 µM (inactive) | > 30 µM (inactive) | > 30 µM (inactive) | > 30 µM (inactive)
NC1(c2ccc(-c3nc4ccn5c(=O)[nH]nc5c4cc3-c3ccccc3)cc2)CCC1 [MK-2206] | > 30 µM (inactive) | > 30 µM (inactive) | > 30 µM (inactive) | > 30 µM (inactive) | > 30 µM (inactive) | > 30 µM (inactive) | > 30 µM (inactive) | > 30 µM (inactive) | > 30 µM (inactive) | > 30 µM (inactive) | > 30 µM (inactive) | > 30 µM (inactive)
CO[C@H]1C[C@@H]2CC[C@@H](C)[C@@](O)(O2)C(=O)C(=O)N2CCCC[C@H]2C(=O)O[C@H]([C@H](C)C[C@@H]2CC[C@@H](OP(C)(C)=O)[C@H](OC)C2)CC(=O)[C@H](C)/C=C(\C)[C@@H](O)[C@@H](OC)C(=O)[C@H](C)C[C@H](C)/C=C/C=C/C=C/1C [RIDAFOROLIMUS] | > 30 µM (inactive) | > 30 µM (inactive) | > 30 µM (inactive) | > 30 µM (inactive) | > 30 µM (inactive) | > 30 µM (inactive) | > 30 µM (inactive) | > 30 µM (inactive) | > 30 µM (inactive) | > 30 µM (inactive) | > 30 µM (inactive) | > 30 µM (inactive)
CNC(=O)c1nn(C)c2c1C(C)(C)Cc1cnc(Nc3ccc(N4CCN(C)CC4)cc3)nc1-2 [MILCICLIB] | > 30 µM (inactive) | > 30 µM (inactive) | 3.01 µM (active) | 1.1 µM (active) | 8.13 µM (active) | > 30 µM (inactive) | > 30 µM (inactive) | > 30 µM (inactive) | > 30 µM (inactive) | > 30 µM (inactive) | > 30 µM (inactive) | 2.97 µM (active)
Cn1ncc(Cl)c1-c1cc(C(=O)N[C@H](CN)Cc2ccc(F)c(F)c2)oc1Cl [UPROSERTIB] | > 30 µM (inactive) | > 30 µM (inactive) | > 30 µM (inactive) | > 30 µM (inactive) | > 30 µM (inactive) | > 30 µM (inactive) | > 30 µM (inactive) | > 30 µM (inactive) | > 30 µM (inactive) | > 30 µM (inactive) | > 30 µM (inactive) | > 30 µM (inactive)
CC(=O)NCC(=O)N1[C@@H]2CC[C@H]1c1ccc(Nc3ncc(C(F)(F)F)c(NC4CCC4)n3)cc12 [PF-03814735] | > 30 µM (inactive) | > 30 µM (inactive) | > 30 µM (inactive) | – | > 30 µM (inactive) | – | – | > 30 µM (inactive) | > 30 µM (inactive) | – | – | –
C[C@@H](Oc1cc(C(=O)Nc2ccc(C(=O)N3CCN(C)CC3)cc2)nnc1N)c1c(Cl)ccc(F)c1Cl | – | > 30 µM (inactive) | > 30 µM (inactive) | > 30 µM (inactive) | > 30 µM (inactive) | > 30 µM (inactive) | > 30 µM (inactive) | > 30 µM (inactive) | > 30 µM (inactive) | > 30 µM (inactive) | > 30 µM (inactive) | > 30 µM (inactive)
Cc1cccc(-c2nn3c(c2-c2ccnc4ccc(C(N)=O)cc24)CCC3)n1 [GALUNISERTIB] | > 30 µM (inactive) | > 30 µM (inactive) | 12.2 µM | > 30 µM (inactive) | > 30 µM (inactive) | > 30 µM (inactive) | > 30 µM (inactive) | > 30 µM (inactive) | > 30 µM (inactive) | > 30 µM (inactive) | > 30 µM (inactive) | > 30 µM (inactive)
COc1cc([C@@H]2c3cc4c(cc3[C@H](O)[C@H]3COC(=O)[C@@H]23)OCO4)cc(OC)c1OC [AXL-1717] | > 30 µM (inactive) | > 30 µM (inactive) | > 30 µM (inactive) | > 30 µM (inactive) | > 30 µM (inactive) | > 30 µM (inactive) | > 30 µM (inactive) | > 30 µM (inactive) | > 30 µM (inactive) | > 30 µM (inactive) | > 30 µM (inactive) | > 30 µM (inactive)
COCc1c(-c2ccc(NC(=O)Nc3cc(C(F)(F)F)ccc3F)c(F)c2)c2c(N)ncnn2c1CN1CCOCC1 | > 30 µM (inactive) | > 30 µM (inactive) | > 30 µM (inactive) | > 30 µM (inactive) | > 30 µM (inactive) | > 30 µM (inactive) | > 30 µM (inactive) | > 30 µM (inactive) | > 30 µM (inactive) | > 30 µM (inactive) | 2.69 µM (active) | > 30 µM (inactive)
Nc1ncnc2c1c(-c1cccc(OCc3ccccc3)c1)cn2[C@H]1C[C@@H](CN2CCC2)C1 [AEW-541] | > 30 µM (inactive) | > 30 µM (inactive) | 0.835 µM (active) | > 30 µM (inactive) | > 30 µM (inactive) | 3.33 µM (active) | > 30 µM (inactive) | > 30 µM (inactive) | > 30 µM (inactive) | > 30 µM (inactive) | > 30 µM (inactive) | > 30 µM (inactive)

— ChEMBL document CHEMBL3991601, “The target landscape of clinical kinase drugs” (Science, 2017)
